Experiments:
[1] = tested on: A549, NCI‐H2122, and NCI‐H1944 cells; experiment: Effect of candidate drugs on cell viability and colony formation; type: cell-based, human; settings: 1, 10 and 50 μM viability; 10 µM colony formation
Protocol: supplies are listed in Supplementary Table S5. The relevant reagents for protein extraction from Escherichia coli are listed in Supplementary Table S6. Inhibitory effects of embelin on KRAS-mutant and wild-type cells are listed in Supplementary Table S7.
For the adherent cell viability assay, cells in the logarithmic growth phase were seeded in 96-well culture plates at a density of 5×103 well-1 and incubated overnight. Diluted compounds or DMSO were added, or specific treatments were incubated at 37 °C and 5% CO2 for 24 h or 48 h. Cell viability was determined using CCK-8 or CellLightTM Cell Viability Assay Kit, according to the manufacturer's protocol. The luminescence signals of the treated samples were normalized to those of the DMSO group.
For spherical cell viability assays, cells in the logarithmic growth phase were inoculated ata density of 4×10^3 well-1 into 96-well spherical cell microplates and incubated at 37 °C, 5% CO2 for 24 h or 48 h. Cell viability was measured using the CellTiter-Glo® Luminescent Cell Viability 3D Cell Viability Assay Kit, according to the manufacturer’s protocol. The remaining steps were the same as those described above.
Colony formation experiment […]
Finally, the staining results were recorded using an inverted microscope. […]

TCPTP = molecular target: T1, TCPTP (Homo sapiens, UniProt P17706); experiment: PTPs activity assay (DiFMUP); type: biochemical
T1 construct: His; made in house; host or cells: E. coli
T1 sequence (P17706 1-415): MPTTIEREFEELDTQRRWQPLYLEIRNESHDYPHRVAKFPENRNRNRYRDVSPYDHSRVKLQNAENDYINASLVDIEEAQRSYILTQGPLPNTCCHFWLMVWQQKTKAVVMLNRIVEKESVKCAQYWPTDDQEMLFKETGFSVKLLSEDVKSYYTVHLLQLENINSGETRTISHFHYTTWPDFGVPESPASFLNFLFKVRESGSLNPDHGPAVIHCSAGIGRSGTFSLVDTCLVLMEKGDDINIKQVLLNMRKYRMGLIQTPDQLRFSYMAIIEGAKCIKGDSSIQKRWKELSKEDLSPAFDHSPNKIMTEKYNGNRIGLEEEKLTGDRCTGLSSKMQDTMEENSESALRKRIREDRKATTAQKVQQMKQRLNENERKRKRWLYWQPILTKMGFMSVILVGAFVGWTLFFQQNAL
Protocol: (§1) Catalytic activity screening methods for PTPs using candidate compounds were performed as previously described.^[ [77] ^] In brief, soluble fusion PTP proteins, His‐ΔSHP2, encompassing the peptide from amino acids 205–593 retaining PTP activity, His‐ΔSHP2^K325A, His‐ΔSHP1, encompassing the peptide from amino acids 202–595 retaining PTP activity, His‐PTP1B, His‐HePTP, His‐VHR, and His‐TCPTP were cloned, expressed, and purified in E. coli. After determining protein concentration using bicinchoninic acid (BCA) assay kit, 1 µg fusion protein, 10 µM library compound were added in 100 µL reaction mixture (55 mM 4‐(2‐hydroxyethyl)‐1‐piperazineethanesulfonic acid [HEPES], 100 mM sodium chloride [NaCl], 0.5 mM ethylenediaminetetraacetic acid [EDTA], 1 mM dithiothreitol [DTT], 0.01% Triton X‐100, 0.002% bovine serum albumin [BSA], and 0.1% dimethyl sulfoxide [DMSO]) and incubated at 37 °C for 30 min in the dark, with Na3VO4 as positive control. The detection substrate DiFMUP (50 µM) was promptly added to each reaction and functioned at 37 °C for 30 min in the dark. The fluorescence intensity was then measured using Multimode Plate Reader (λa = 358 nm, λe = 455 nm, PerkinElmer, USA).

ΔSHP2 = molecular target: T2, ΔSHP2 (Homo sapiens, UniProt Q06124); experiment: PTPs activity assay (DiFMUP); type: biochemical
T2 construct: His‐ΔSHP2, encompassing the peptide from amino acids 205–593 retaining PTP activity; His; made in house; host or cells: E. coli
T2 sequence (Q06124 205-593): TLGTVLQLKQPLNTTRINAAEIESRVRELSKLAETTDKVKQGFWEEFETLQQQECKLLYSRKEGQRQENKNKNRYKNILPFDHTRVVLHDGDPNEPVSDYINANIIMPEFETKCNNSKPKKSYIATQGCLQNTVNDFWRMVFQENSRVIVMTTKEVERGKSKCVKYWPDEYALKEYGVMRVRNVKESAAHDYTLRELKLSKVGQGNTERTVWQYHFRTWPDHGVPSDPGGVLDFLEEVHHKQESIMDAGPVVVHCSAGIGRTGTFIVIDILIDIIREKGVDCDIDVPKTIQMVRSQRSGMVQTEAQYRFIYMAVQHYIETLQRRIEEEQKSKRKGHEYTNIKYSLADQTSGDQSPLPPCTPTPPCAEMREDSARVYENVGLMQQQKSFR
Protocol: as §1

HePTP = molecular target: T3, HePTP (Homo sapiens, UniProt P35236); experiment: PTPs activity assay (DiFMUP); type: biochemical
T3 construct: His; made in house; host or cells: E. coli
T3 sequence (P35236 1-360): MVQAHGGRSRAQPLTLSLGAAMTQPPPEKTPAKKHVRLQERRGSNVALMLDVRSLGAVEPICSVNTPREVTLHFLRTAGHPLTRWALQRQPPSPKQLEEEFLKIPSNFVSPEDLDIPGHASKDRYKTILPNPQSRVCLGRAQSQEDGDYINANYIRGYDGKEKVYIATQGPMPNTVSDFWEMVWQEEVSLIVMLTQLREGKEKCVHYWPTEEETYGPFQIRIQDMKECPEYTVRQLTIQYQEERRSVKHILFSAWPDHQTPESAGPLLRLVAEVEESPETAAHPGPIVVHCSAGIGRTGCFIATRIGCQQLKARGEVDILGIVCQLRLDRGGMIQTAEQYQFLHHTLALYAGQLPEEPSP
Protocol: as §1

PTP1B = molecular target: T4, PTP1B (Homo sapiens, UniProt P18031); experiment: PTPs activity assay (DiFMUP); type: biochemical; settings: read-out: IC50 of PTPs PTP1B
T4 construct: His; made in house; host or cells: E. coli
T4 sequence (P18031 1-435): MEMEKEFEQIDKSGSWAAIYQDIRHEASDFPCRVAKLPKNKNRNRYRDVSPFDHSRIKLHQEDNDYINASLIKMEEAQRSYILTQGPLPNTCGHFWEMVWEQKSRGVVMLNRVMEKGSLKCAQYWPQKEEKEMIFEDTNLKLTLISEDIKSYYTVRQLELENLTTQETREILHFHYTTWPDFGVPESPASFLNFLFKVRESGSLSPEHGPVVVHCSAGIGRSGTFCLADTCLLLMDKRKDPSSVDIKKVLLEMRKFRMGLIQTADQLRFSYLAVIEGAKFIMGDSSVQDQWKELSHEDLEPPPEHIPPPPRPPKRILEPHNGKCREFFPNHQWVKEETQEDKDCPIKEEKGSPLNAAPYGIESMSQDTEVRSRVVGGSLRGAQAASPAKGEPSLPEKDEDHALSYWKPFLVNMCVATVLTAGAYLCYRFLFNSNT
Protocol: as §1

ΔSHP1 = molecular target: T5, ΔSHP1 (Homo sapiens, UniProt P29350); experiment: PTPs activity assay (DiFMUP); type: biochemical
T5 construct: His‐ΔSHP1, encompassing the peptide from amino acids 202–595 retaining PTP activity; His; made in house; host or cells: E. coli
T5 sequence (P29350 202-595, stated change not applied): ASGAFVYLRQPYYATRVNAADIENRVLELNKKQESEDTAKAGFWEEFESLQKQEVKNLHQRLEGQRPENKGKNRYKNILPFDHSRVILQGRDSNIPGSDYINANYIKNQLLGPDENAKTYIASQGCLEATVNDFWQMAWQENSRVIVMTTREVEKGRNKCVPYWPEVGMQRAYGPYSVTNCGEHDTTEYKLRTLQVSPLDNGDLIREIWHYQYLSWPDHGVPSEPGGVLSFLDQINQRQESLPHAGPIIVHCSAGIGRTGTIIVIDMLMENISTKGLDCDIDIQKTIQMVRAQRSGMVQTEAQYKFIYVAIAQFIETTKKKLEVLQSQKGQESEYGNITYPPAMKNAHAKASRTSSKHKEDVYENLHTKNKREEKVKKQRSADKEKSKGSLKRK
Protocol: as §1

VHR = molecular target: T6, VHR (Homo sapiens, UniProt P51452); experiment: PTPs activity assay (DiFMUP); type: biochemical
T6 construct: His; made in house; host or cells: E. coli
T6 sequence (P51452 whole entry): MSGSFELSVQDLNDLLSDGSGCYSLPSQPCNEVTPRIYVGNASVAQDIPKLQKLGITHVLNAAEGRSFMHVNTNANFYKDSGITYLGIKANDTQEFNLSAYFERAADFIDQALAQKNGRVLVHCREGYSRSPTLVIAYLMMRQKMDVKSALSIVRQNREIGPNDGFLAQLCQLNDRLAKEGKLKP
Protocol: as §1

Q: `CC1=NN(c2ccc(C)c(C)c2)C(=O)/C1=N\Nc1cccc(-c2cccc(C(=O)O)c2)c1O` [S2229, Eltrombopag Olamine] was tested. Which “effect on proliferation of KRAS‐mutation cells” value [1] did it give?
A: inhibited the proliferation

Q: And the IC50 (TCPTP)?
A: > 200 µM

Q: And the IC50 (ΔSHP2)?
A: 21.7 µM

Q: What about the IC50 (HePTP) of the same molecule?
A: 202 µM

Q: And the IC50 (PTP1B)?
A: 145 µM

Q: And the IC50 (ΔSHP1)?
A: > 200 µM

Q: What about the IC50 (VHR) of the same molecule?
A: 242 µM

— article PMC12005787, “Synthetic Lethality of SHP2 and XIAP Suppresses Proliferation and Metastasis in KRAS‐mutant Nonsmall Cell Lung Cancer” (Advanced Science, 2025)
